The target of one assay is α3β2 nAChR (Rattus norvegicus, UniProt P04757+P12390). The assay can be described thus: two-electrode voltage clamp, Xenopus oocytes, peak current. The format is cell-based.
The next assay concerns the target α3β4 nAChR (Rattus norvegicus, UniProt P04757+P12392). The assay is described as above. The format is cell-based.

The results in this text go back to PMC4586081 (Journal of neuroscience research, 2008).

α3β2 nAChR, sequence (P04757 26-499): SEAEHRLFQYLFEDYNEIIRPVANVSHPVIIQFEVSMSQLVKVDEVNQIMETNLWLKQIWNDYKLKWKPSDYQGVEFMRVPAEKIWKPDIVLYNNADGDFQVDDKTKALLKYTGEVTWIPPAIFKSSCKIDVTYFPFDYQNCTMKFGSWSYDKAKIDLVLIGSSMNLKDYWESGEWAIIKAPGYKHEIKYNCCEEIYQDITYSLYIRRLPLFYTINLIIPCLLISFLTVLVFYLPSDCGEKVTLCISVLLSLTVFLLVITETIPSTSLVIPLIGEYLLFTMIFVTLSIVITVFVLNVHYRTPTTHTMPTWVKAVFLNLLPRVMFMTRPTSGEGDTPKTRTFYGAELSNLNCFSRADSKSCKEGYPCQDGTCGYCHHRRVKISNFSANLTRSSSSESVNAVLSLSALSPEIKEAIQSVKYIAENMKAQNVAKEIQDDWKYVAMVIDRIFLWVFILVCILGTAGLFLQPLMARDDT
α3β2 nAChR, sequence (P12390 25-500): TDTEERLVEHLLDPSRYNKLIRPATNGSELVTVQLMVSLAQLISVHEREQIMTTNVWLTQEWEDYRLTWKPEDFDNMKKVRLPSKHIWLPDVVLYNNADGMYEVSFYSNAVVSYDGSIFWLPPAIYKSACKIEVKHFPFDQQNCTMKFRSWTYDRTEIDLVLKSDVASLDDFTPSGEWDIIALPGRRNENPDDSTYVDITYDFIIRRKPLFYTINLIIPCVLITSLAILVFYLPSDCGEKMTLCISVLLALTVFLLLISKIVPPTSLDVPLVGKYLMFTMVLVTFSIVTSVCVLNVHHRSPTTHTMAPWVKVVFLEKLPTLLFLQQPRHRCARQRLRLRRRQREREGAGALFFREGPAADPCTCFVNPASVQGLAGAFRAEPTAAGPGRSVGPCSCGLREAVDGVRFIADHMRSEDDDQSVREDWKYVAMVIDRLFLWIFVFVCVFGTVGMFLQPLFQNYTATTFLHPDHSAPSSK
α3β4 nAChR, sequence (P04757 26-499): as the sequence (P04757 26-499) above
α3β4 nAChR, sequence (P12392 21-495): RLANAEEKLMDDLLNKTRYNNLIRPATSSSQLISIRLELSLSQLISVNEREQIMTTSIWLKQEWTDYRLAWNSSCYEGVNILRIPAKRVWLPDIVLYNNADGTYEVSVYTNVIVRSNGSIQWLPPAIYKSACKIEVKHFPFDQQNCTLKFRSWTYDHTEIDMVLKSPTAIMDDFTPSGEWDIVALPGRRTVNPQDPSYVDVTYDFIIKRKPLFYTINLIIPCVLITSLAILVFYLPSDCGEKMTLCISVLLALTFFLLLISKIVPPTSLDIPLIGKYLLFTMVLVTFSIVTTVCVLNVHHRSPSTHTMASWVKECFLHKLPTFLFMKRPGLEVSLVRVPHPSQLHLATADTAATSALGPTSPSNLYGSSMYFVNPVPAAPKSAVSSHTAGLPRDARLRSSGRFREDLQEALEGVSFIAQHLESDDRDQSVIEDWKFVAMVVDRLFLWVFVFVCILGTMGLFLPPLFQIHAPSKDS

Take `C[N+]1(C)CCN(c2ccccc2)CC1` [DMPP]: the EC50 at α3β2 nAChR stood at 55 µM; at α3β4 nAChR, 58 µM.
